Read-outs that look alike come from different tables or passages of the source.
Assays:
[1] = Study 2: biodistribution in healthy New Zealand rabbits (gamma counting of dissected organs); type: in vivo; details: i.v.
Description: Biodistribution were determined in 36 healthy New Zealand rabbits (18 males and 18 females, 14 weeks old, 3.5 kg weight, Charles River, France), being randomly divided into two groups: • One group receiving ^99mTc-NTP 15-5: 18±3 MBq/animal for biodistribution; • One group receiving ^64Cu-2: 17±4 MBq/animal for biodistribution.
The compounds were i.v. administered to anesthetized animals (ketamine/xylazine by intramuscular route) in the marginal ear vein.
At selected time points after injection (15 min, 1 h, 3 h, 6 h, 20 h after injection), animals (3 animals/time point/compound) were sacrificed by a lethal i.v. dose of pentobarbital. Organs of interest were dissected, weighed and their radioactivity measured using a gamma counter (Model 1480 Wizard, Perkin Elmer Life Sciences, Boston, USA). After radioactive decay correction, results were expressed for each organ as % injected dose per gram (% ID/g) and averaged per group and per time point.

[2] = Study 1: biodistribution of ^99mTc-NTP 15-5 in healthy rat; type: in vivo; details: 1 h p.i., 0.37 MBq, average from 3 animals ± SD
Description: Quantitative biodistribution of radiolabelled compounds was determined in rats: healthy animals as well as rats with primary grade II orthotopic chondrosarcoma at stage Day-30 after induction. The chondrosarcoma model was the Swarm Rat Chondrosarcoma model (SRC) implanted in paratibial location. […] One hour after injection, animals were then sacrificed by CO2 inhalation, dissected and organs of interest removed, weighed and their radioactivity counted using a gamma counter (Model 1480 Wizard, Perkin Elmer Life Sciences, Boston, USA). Organs collected were blood, muscle, knee, kidneys, liver, thoracic ribs, bladder for both healthy and chondrosarcoma bearing rats. For SRC animals, tumour was also sampled. After radioactive decay correction, results were expressed for each organ as % injected dose per gram (% ID/g) and averaged per group.
The following table discloses the biodistribution of ^99mTc-NTP 15-5 in healthy rat, carried out in similar conditions than those of the compounds of the invention (see section C above).

[3] = Biodistribution in healthy and SRC bearing rats at 1 h after i.v. injection of radiolabelled compounds; type: in vivo; details: mean ± SD (n = 3)
Description: (§1) Quantitative biodistribution of radiolabelled compounds was determined in rats: healthy animals as well as rats with primary grade II orthotopic chondrosarcoma at stage Day-30 after induction. The chondrosarcoma model was the Swarm Rat Chondrosarcoma model (SRC) implanted in paratibial location. Radiolabelled compounds (5-10 Mbq/animal) were i.v. administered in the caudal vein of animals being anesthetized of mixture of ketamine (58 mg/kg i.p.) (Imalgéne 500®) and xylazine (6 mg/kg i.p.) (Rompun® 2%, Bayer, France). One hour after injection, animals were then sacrificed by CO2 inhalation, dissected and organs of interest removed, weighed and their radioactivity counted using a gamma counter (Model 1480 Wizard, Perkin Elmer Life Sciences, Boston, USA). Organs collected were blood, muscle, knee, kidneys, liver, thoracic ribs, bladder for both healthy and chondrosarcoma bearing rats. For SRC animals, tumour was also sampled. After radioactive decay correction, results were expressed for each organ as % injected dose per gram (% ID/g) and averaged per group.

[4] = Study 3: quantitative biodistribution of ^64Cu-5 in rats; type: in vivo
Description: as §1, with “USA).” for “USA). Organs collected were blood, muscle, knee, kidneys, liver, thoracic ribs, bladder for both healthy and chondrosarcoma bearing rats.”, “tumor” for “tumour”
The comparison was carried out between ^64Cu-5 and ^99mTc-NTPC, the NTPC ligand having the following structure: […]

[5] = Maurizis et al. 2000, 7.4 MBq/Kg; cited from earlier work
[6] = i.v., 5-10 MBq/animal, one hour after injection

CC[N+](CC)(CC)CCCN1CC[N]2CC[N]3CC[N]4CC[N](CC1)[Tc]234(=[O])=[O].[Br-] [^99mTc-NTP 15-5, reference compound]
Uptake ratio Cartilage/Bone ([1]; 15 min): 51.5 | Uptake ratio Cartilage/Muscle ([1]; 15 min): 103 | Articular Cartilage ([1]; 15 min after injection): 1.03 ± 0.4 % ID/g | Bile ([1]; 15 min after injection): 0.09 ± 0.08 % ID/g | Blood ([1]; 15 min after injection): 1.09 ± 0.81 % ID/g | Bone ([1]; 15 min after injection): 0.02 ± 0.01 % ID/g | Bone Marrow ([1]; 15 min after injection): 0.02 ± 0.02 % ID/g | Kidney ([1]; 15 min after injection): 0.19 ± 0.03 % ID/g | Liver ([1]; 15 min after injection): 0.05 ± 0.02 % ID/g | Lung ([1]; 15 min after injection): 0.04 ± 0.04 % ID/g | Muscle ([1]; 15 min after injection): 0.01 ± 0.00 % ID/g | Spleen ([1]; 15 min after injection): 0.03 ± 0.06 % ID/g | Thyroid ([1]; 15 min after injection): 0.05 ± 0.04 % ID/g | Urine ([1]; 15 min after injection): 1.40 ± 1.02 % ID/g | Uptake ratio Cartilage/Bone ([1]; 1 h): 46 | Articular Cartilage ([1]; 1 h after injection): 0.92 ± 0.4 % ID/g | Bile ([1]; 1 h after injection): 0.09 ± 0.07 % ID/g | Blood ([1]; 1 h after injection): 0.75 ± 0.09 % ID/g | Bone ([1]; 1 h after injection): 0.02 ± 0.00 % ID/g | Bone Marrow ([1]; 1 h after injection): 0.01 ± 0.00 % ID/g | Kidney ([1]; 1 h after injection): 0.10 ± 0.06 % ID/g | Liver ([1]; 1 h after injection): 0.06 ± 0.03 % ID/g | Lung ([1]; 1 h after injection): 0.02 ± 0.00 % ID/g | Muscle ([1]; 1 h after injection): 0.00 ± 0.00 % ID/g | Spleen ([1]; 1 h after injection): 0.02 ± 0.01 % ID/g | Thyroid ([1]; 1 h after injection): 0.06 ± 0.03 % ID/g | Urine ([1]; 1 h after injection): 4.08 ± 5.75 % ID/g | Articular Cartilage ([1]; 3 h after injection): 0.35 ± 0.15 % ID/g | Bile ([1]; 3 h after injection): 0.18 ± 0.24 % ID/g | Blood ([1]; 3 h after injection): 0.17 ± 0.81 % ID/g | Bone ([1]; 3 h after injection): 0.00 ± 0.00 % ID/g | Bone Marrow ([1]; 3 h after injection): 0.00 ± 0.00 % ID/g | Kidney ([1]; 3 h after injection): 0.09 ± 0.03 % ID/g | Liver ([1]; 3 h after injection): 0.08 ± 0.02 % ID/g | Lung ([1]; 3 h after injection): 0.01 ± 0.00 % ID/g | Muscle ([1]; 3 h after injection): 0.00 ± 0.00 % ID/g | Spleen ([1]; 3 h after injection): 0.00 ± 0.00 % ID/g | Thyroid ([1]; 3 h after injection): 0.11 ± 0.01 % ID/g | Urine ([1]; 3 h after injection): 1.34 ± 0.52 % ID/g | Articular Cartilage ([1]; 6 h after injection): 0.09 ± 0.03 % ID/g | Bile ([1]; 6 h after injection): 0.08 ± 0.02 % ID/g | Blood ([1]; 6 h after injection): 0.03 ± 0.00 % ID/g | Bone ([1]; 6 h after injection): 0.00 ± 0.00 % ID/g | Bone Marrow ([1]; 6 h after injection): 0.00 ± 0.00 % ID/g | Kidney ([1]; 6 h after injection): 0.06 ± 0.01 % ID/g | Liver ([1]; 6 h after injection): 0.06 ± 0.01 % ID/g | Lung ([1]; 6 h after injection): 0.00 ± 0.00 % ID/g | Muscle ([1]; 6 h after injection): 0.00 ± 0.00 % ID/g | Spleen ([1]; 6 h after injection): 0.00 ± 0.00 % ID/g | Thyroid ([1]; 6 h after injection): 0.02 ± 0.03 % ID/g | Urine ([1]; 6 h after injection): 1.61 ± 0.6 % ID/g | Articular Cartilage ([1]; 20 h after injection): 0.04 ± 0.01 % ID/g | Bile ([1]; 20 h after injection): 0.03 ± 0.01 % ID/g | Blood ([1]; 20 h after injection): 0.00 ± 0.00 % ID/g | Bone ([1]; 20 h after injection): 0.00 ± 0.00 % ID/g | Bone Marrow ([1]; 20 h after injection): 0.00 ± 0.00 % ID/g | Kidney ([1]; 20 h after injection): 0.07 ± 0.00 % ID/g | Liver ([1]; 20 h after injection): 0.03 ± 0.02 % ID/g | Lung ([1]; 20 h after injection): 0.00 ± 0.00 % ID/g | Muscle ([1]; 20 h after injection): 0.00 ± 0.00 % ID/g | Spleen ([1]; 20 h after injection): 0.01 ± 0.00 % ID/g | Thyroid ([1]; 20 h after injection): 0.00 ± 0.00 % ID/g | Urine ([1]; 20 h after injection): 0.40 ± 0.01 % ID/g | Blood [2]: 0.90 ± 0.08 % ID/g | Bone (tibia) [2]: 0.51 ± 0.29 % ID/g | Brain [2]: 0.14 ± 0.02 % ID/g | Kidney [2]: 15.4 ± 12.5 % ID/g | Liver [2]: 2.02 ± 0.38 % ID/g | Lung [2]: 1.71 ± 0.97 % ID/g | Muscle [2]: 0.37 ± 0.24 % ID/g | Spleen [2]: 0.71 ± 0.25 % ID/g | Testis [2]: 1.11 ± 0.47 % ID/g | Tibial plateau [2]: 2.99 ± 1.60 % ID/g

CC[N+](CC)(CC)CCCN1CCCNCCNCCCNCC1.[64Cu+2] [^64Cu-5, [^64Cu]—N,N,N-Triethyl-3-(1,4,8,11-tetraazacyclotetradecan-1-yl)propan-1-aminium copper(II)]
Tumor ([3]; SRC (Swarm Rat Chondrosarcoma) bearing rats): 5.2 ± 2.1 % ID/g | Articular Cartilage ([3]; healthy and SRC bearing rats): 5.9 ± 2.3 % ID/g | Bladder ([3]; healthy and SRC bearing rats): 66.5 ± 14.4 % ID/g | Blood ([3]; healthy and SRC bearing rats): 0.8 ± 1.2 % ID/g | Kidney ([3]; healthy and SRC bearing rats): 27.5 ± 10.1 % ID/g | Muscle ([3]; healthy and SRC bearing rats): 1.5 ± 1.2 % ID/g | Uptake in kidneys compared to ^99mTc-NTPC [4]: higher uptake | Uptake in liver [4]: undetectable | Uptake in target organs (intervertebral disc and articular cartilage) compared to ^99mTc-NTPC [4]: higher uptake | Articular Cartilage [4, 6]: 5.9 ± 2.3 % ID/g | Blood [4, 6]: 0.8 ± 1.2 % ID/g | Intervertebral disc [4, 6]: 3.5 ± 0.6 % ID/g | Kidney [4, 6]: 27.5 ± 10.1 % ID/g | Elimination compared to ^99mTc-NTPC ([4]; indicated by accumulation in kidneys): good elimination | In vivo stability (Cu is not released) ([4]; inferred from liver uptake): stable

CC[N+](CC)(CC)CCCN1CCCNCCNCCCNCC1 [^99mTc-NTPC, metal not drawn]
Articular Cartilage [5]: 0.52 ± 0.08 % ID/g | Blood [5]: 0.22 ± 0.05 % ID/g | Intervertebral disc [5]: 0.36 ± 0.09 % ID/g | Kidney [5]: 2.96 ± 0.36 % ID/g | Liver [5]: 4.34 ± 0.47 % ID/g

Reference: patent US10351539B2, “Macrocyclic complexes, their process of preparation and use as PET imaging agents” (INSTITUT NATIONAL DE LA SANTE ET DE LA RECHERCHE MEDICALE …, priority 2014, dated 2019)
